In general, MIC refers to the least concentration at which growth counts as inhibited. Higher therefore signals weaker potency.

This is an account of results in ChEMBL document CHEMBL1147210, “Synthesis and antibacterial activity of levofloxacin derivatives with certain bulky residues on piperazine ring” (Eur J Med Chem, 2007).

≈ marks a conversion by molar mass, not a printed value. A value given as a limit tells only on which side of the number the result lay.

For experiment [1], the system named is Staphylococcus epidermidis. Kind of experiment: Antibacterial activity against Staphylococcus epidermidis ATCC 12228 after 18 hrs. It counts as functional. Particulars: ATCC 12228, 18 h.
In experiment [2] the test system is Staphylococcus aureus. Kind of experiment: Antibacterial activity against Staphylococcus aureus ATCC 25923 after 18 hrs. It counts as functional. Particulars: ATCC 25923, 18 h.
For experiment [3], the system named is Shigella flexneri. Kind of experiment: Antibacterial activity against Shigella flexneri NCTC 8516 after 18 hrs. It counts as functional. Particulars: NCTC 8516, 18 h.
In experiment [4] the test system is Staphylococcus aureus. In words: Antibacterial activity against methicillin-resistant Staphylococcus aureus isolate 1 after 18 hrs. It counts as functional.
Experiment [5] concerns Salmonella typhi. In words: Antibacterial activity against Salmonella typhi ATCC 19430 after 18 hrs. It counts as functional, Salmonella enterica subsp. enterica serovar Typhi. To be noted: Salmonella enterica, ATCC 19430, 18 h.
Experiment [6] has as its system Enterococcus faecalis. In words: Antibacterial activity against Enterococcus faecalis NCTC 6013 after 18 hrs. It counts as functional. Particulars: NCTC 6013, 18 h.
Experiment [7] relates to Escherichia coli. In words: Antibacterial activity against Escherichia coli ATCC 25922 after 18 hrs. It counts as functional. To be noted: ATCC 25922, 18 h.
For experiment [8], the system named is Staphylococcus epidermidis. Kind of experiment: Antibacterial activity against Staphylococcus epidermidis ATCC 14940 after 18 hrs. It counts as functional. Particulars: ATCC 14940, 18 h.
Experiment [9] concerns Staphylococcus aureus. In words: Antibacterial activity against methicillin-resistant Staphylococcus aureus isolate 2 after 18 hrs. It counts as functional.
Experiment [10] relates to Bacillus subtilis. In words: Antibacterial activity against Bacillus subtilis ATCC 6051 after 18 hrs. Particulars: ATCC 6051, 18 h. It counts as functional.
Experiment [11] has as its system Pseudomonas aeruginosa. In words: Antibacterial activity against Pseudomonas aeruginosa ATCC 27853 after 18 hrs. It counts as functional. To be noted: ATCC 27853, 18 h.
The subject of experiment [12] is Serratia marcescens. Kind of experiment: Antibacterial activity against Serratia marcescens PTCC 1111 after 18 hrs. It counts as functional.
In experiment [13] the test system is Klebsiella pneumoniae. In words: Antibacterial activity against Klebsiella pneumoniae ATCC 10031 after 18 hrs. It counts as functional. Particulars: ATCC 10031, 18 h.
Experiment [14] relates to Staphylococcus aureus. In words: Antibacterial activity against Staphylococcus aureus ATCC 6538p after 18 hrs. It counts as functional.
The subject of experiment [15] is Escherichia coli. In words: Antibacterial activity against Escherichia coli NCTC 12900 after 18 hrs. It counts as functional. To be noted: NCTC 12900, 18 h.

`Cc1ccc(/C(CN2CCN(c3c(F)cc4c(=O)c(C(=O)O)cn5c4c3OC[C@@H]5C)CC2)=N/O)cc1`: the MIC turned out to be 0.5 µg/mL (≈ 1.01 µM) in [1]; 1 µg/mL (≈ 2.02 µM) in experiment [2]; 1 µg/mL (≈ 2.02 µM) in [3]; 0.5 µg/mL (≈ 1.01 µM) in experiment [4]; 1 µg/mL (≈ 2.02 µM) in [5]; 0.25 µg/mL (≈ 0.506 µM) in [6]. For the same compound, the MIC is 1 µg/mL (≈ 2.02 µM) in experiment [7]; 0.5 µg/mL (≈ 1.01 µM) in experiment [8]; 0.5 µg/mL (≈ 1.01 µM) in [9]; 0.5 µg/mL (≈ 1.01 µM) in experiment [10]; more than 4 µg/mL in experiment [11]; more than 4 µg/mL in experiment [12]. Further, the MIC in [13] is more than 4 µg/mL; in experiment [14] it was 0.5 µg/mL (≈ 1.01 µM); in experiment [15], 1 µg/mL (≈ 2.02 µM).

Turning to `C[C@H]1COc2c(N3CCN(CC(=O)c4ccccc4)CC3)c(F)cc3c(=O)c(C(=O)O)cn1c23`, the MIC in experiment [1] was 0.5 µg/mL (≈ 1.07 µM); in [2], 0.5 µg/mL (≈ 1.07 µM); in experiment [3], 0.25 µg/mL (≈ 0.537 µM); in [4] it was 0.5 µg/mL (≈ 1.07 µM); in experiment [5] it was 0.12 µg/mL (≈ 0.258 µM); in experiment [6], 4 µg/mL (≈ 8.59 µM). Besides, the MIC in experiment [7] was 0.12 µg/mL (≈ 0.258 µM); in [8] it was 0.5 µg/mL (≈ 1.07 µM); in [9], 1 µg/mL (≈ 2.15 µM); in experiment [10], 0.5 µg/mL (≈ 1.07 µM); in experiment [11], more than 4 µg/mL; in experiment [12] it was 4 µg/mL (≈ 8.59 µM). Further, the figures for the MIC in experiment [13], in experiment [14] and in experiment [15] were 0.5 µg/mL (≈ 1.07 µM), 0.5 µg/mL (≈ 1.07 µM) and 0.25 µg/mL (≈ 0.537 µM), respectively.

Take `C[C@H]1COc2c(N3CCN(C/C(=N\O)c4ccc(F)cc4)CC3)c(F)cc3c(=O)c(C(=O)O)cn1c23`: the MIC in experiment [1] was determined as 0.5 µg/mL (≈ 1 µM); in experiment [2], 1 µg/mL (≈ 2.01 µM); in experiment [3] it was 1 µg/mL (≈ 2.01 µM); in [4], 1 µg/mL (≈ 2.01 µM); in [5] it was 1 µg/mL (≈ 2.01 µM); in experiment [6], 0.25 µg/mL (≈ 0.502 µM). Further, the MIC in experiment [7] is 4 µg/mL (≈ 8.02 µM); in [8], 0.5 µg/mL (≈ 1 µM); in experiment [9], 1 µg/mL (≈ 2.01 µM); in experiment [10] it was 0.25 µg/mL (≈ 0.502 µM); in experiment [11], more than 4 µg/mL; in [12] it was more than 4 µg/mL. Further, the MIC is more than 4 µg/mL in experiment [13], 1 µg/mL (≈ 2.01 µM) in [14] and 2 µg/mL (≈ 4.01 µM) in experiment [15].

As for `C[C@H]1COc2c(N3CCN(CC(=O)c4ccc(Cl)cc4Cl)CC3)c(F)cc3c(=O)c(C(=O)O)cn1c23`, the MIC amounted to 1 µg/mL (≈ 1.87 µM) in experiment [1]; 0.5 µg/mL (≈ 0.936 µM) in [2]; 1 µg/mL (≈ 1.87 µM) in experiment [3]; 0.5 µg/mL (≈ 0.936 µM) in experiment [4]; 2 µg/mL (≈ 3.74 µM) in experiment [5]; 0.5 µg/mL (≈ 0.936 µM) in experiment [6]. Moreover, the MIC in [7] is 1 µg/mL (≈ 1.87 µM); in experiment [8], 0.5 µg/mL (≈ 0.936 µM); in experiment [9], 1 µg/mL (≈ 1.87 µM); in experiment [10] it was 1 µg/mL (≈ 1.87 µM); in [11], more than 4 µg/mL; in experiment [12], more than 4 µg/mL. The MIC in experiment [13] is more than 4 µg/mL; in experiment [14], 1 µg/mL (≈ 1.87 µM); in experiment [15], 2 µg/mL (≈ 3.74 µM).

As to `Cc1ccc(C(=O)CN2CCN(c3c(F)cc4c(=O)c(C(=O)O)cn5c4c3OC[C@@H]5C)CC2)cc1`, the MIC in experiment [1] is 0.5 µg/mL (≈ 1.04 µM); in [2], 0.5 µg/mL (≈ 1.04 µM); in experiment [3] it was 0.5 µg/mL (≈ 1.04 µM); in experiment [4], 1 µg/mL (≈ 2.09 µM); in experiment [5], 1 µg/mL (≈ 2.09 µM); in experiment [6] it was 0.25 µg/mL (≈ 0.521 µM). Besides, the MIC was 1 µg/mL (≈ 2.09 µM) in experiment [7]; 0.5 µg/mL (≈ 1.04 µM) in experiment [8]; 1 µg/mL (≈ 2.09 µM) in experiment [9]; 0.5 µg/mL (≈ 1.04 µM) in experiment [10]; more than 4 µg/mL in [11]; more than 4 µg/mL in experiment [12]. The figures for the MIC in experiment [13], in experiment [14] and in [15] were more than 4 µg/mL, 1 µg/mL (≈ 2.09 µM) and 0.5 µg/mL (≈ 1.04 µM), respectively.
